Test results as given in US11377442B2, “Small molecule agonists and antagonists of NR2F6 activity” (ZANDER THERAPEUTICS, INC., priority 2016, dated 2022).
Where two headings read alike, the source gives them in different places.

Columns and labels:
Format in all cases: cell-based
NR2F6 = biological target: T1, NR2F6 (Homo sapiens, UniProt P10588); experiment: NR2F6 agonist screening, Firefly signal cmpd/DMSO
T1 construct: expressed in transfected cells; also transient transfection
T1 sequence (P10588 1-404): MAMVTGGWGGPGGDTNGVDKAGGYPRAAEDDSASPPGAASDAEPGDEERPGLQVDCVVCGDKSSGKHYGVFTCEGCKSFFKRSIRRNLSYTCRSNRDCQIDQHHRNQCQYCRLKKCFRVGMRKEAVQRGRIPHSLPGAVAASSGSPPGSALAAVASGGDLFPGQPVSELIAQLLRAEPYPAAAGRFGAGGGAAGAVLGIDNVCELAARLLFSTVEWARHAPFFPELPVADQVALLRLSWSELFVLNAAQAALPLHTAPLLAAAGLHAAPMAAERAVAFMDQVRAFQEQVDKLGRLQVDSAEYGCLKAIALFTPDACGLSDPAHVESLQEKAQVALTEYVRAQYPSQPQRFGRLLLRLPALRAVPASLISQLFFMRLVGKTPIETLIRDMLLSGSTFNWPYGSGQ

Renilla = Renilla signal in NR2F6 agonist screening, cmpd/DMSO; conditions: Renilla, F4
HEK293 pGL4 = experiment: Firefly_pGL signal, cmpd/DMSO (pGL4 control cells); conditions: Homo sapiens
NR2F6 LBD = biological target: T2, NR2F6 LBD (Homo sapiens, UniProt P10588); experiment: NR2F6 LBD transient transfection; conditions: LBD
T2 construct: expressed in transfected cells
T2 sequence (P10588 165-393 limits assumed): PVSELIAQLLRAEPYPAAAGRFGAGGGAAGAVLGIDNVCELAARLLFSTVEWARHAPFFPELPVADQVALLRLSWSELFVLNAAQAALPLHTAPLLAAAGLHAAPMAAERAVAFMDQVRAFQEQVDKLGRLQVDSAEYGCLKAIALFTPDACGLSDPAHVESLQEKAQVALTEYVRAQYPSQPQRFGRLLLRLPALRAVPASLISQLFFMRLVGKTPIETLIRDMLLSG
Description: FIGS. 27A and 27B show NR2F6 and LBD transient transfection, respectively, for Compound D28. Higher concentrations were excluded due to lower signal (tox effect). FIGS. 27C and 27D show NR2F6 and LBD transient transfection at different concentrations for different compounds. 9 compounds were tested on LBD transfected cells (40, 10, 2 and 0.5 μM, 4 replicates). FIGS. 27E and 27F show toxicity of Compound D28. 9 compounds were tested for cytotoxicity on LBD transfected cells (40, 10, 2 and 0.5 μM, 4 replicates). […] Cytotoxicity normalized to DMSO is shown in FIG. 27F (0% cytotoxicity corresponds to DMSO signal, 100%—zero signal).
FIGS. 34A and 34B show NR2F6 LBD transient transfection for Compound E21. 9 compounds were tested on LBD transfected cells (40, 10, 2 and 0.5 μM, 4 replicates). FIGS. 34C and 34D show NR2F6 and LBD transient transfection at different concentrations for different compounds. 9 compounds were tested on LBD transfected cells (40, 10, 2 and 0.5 μM, 4 replicates). […] Cytotoxicity normalized to DMSO is shown in FIG. 34D (0% cytotoxicity corresponds to DMSO signal, 100%—zero signal). All compounds were tested at 5, 10, 25 and 50 uM in duplicates. Dog PBMC (1×10^6 cells/mL) were activated by 10 ng/mL PMA+500 ng/mL ionomycin. Data were normalized to controls with (100%)/without (0%) PMA+ionomycin activation.
FIGS. 39A and 39B show NR2F6 LBD transient transfection for Compound F1. 9 compounds were tested on LBD transfected cells (40, 10, 2 and 0.5 μM, 4 replicates). FIGS. 39C and 39D show toxicity of NR2F6 LBD transient transfection. 9 compounds were tested for cytotoxicity on LBD transfected cells (40, 10, 2 and 0.5 μM, 4 replicates). Tox effect causes lower signal compared to DMSO. Cytotoxicity normalized to DMSO is shown in FIG. 39D (0% cytotoxicity corresponds to DMSO signal, 100%—zero signal).

[1] = read-out: Renilla, F4, cmpd/DMSO (mean)
[2] = HEK293, 0.5 uM, pGL4, read-out: Firefly pGL4, cmpd/DMSO (mean)
[3] = HEK293, 2 uM, pGL4, read-out: Firefly pGL4, cmpd/DMSO (mean)
[4] = HEK293, 10 uM, pGL4, read-out: Firefly pGL4, cmpd/DMSO (mean)
[5] = HEK293, 40 uM, pGL4, read-out: Firefly pGL4, cmpd/DMSO (mean)
[6] = 1% FBS, read-out: Renilla, F4, 1% FBS, cmpd/DMSO (mean)
[7] = 10% FBS, read-out: Renilla, F4, 10% FBS, cmpd/DMSO (mean)
[8] = HEK293, pGL4, 1% FBS, 0.5 uM, read-out: Firefly, pGL4, 1% FBS, cmpd/DMSO (mean)
[9] = HEK293, pGL4, 1% FBS, 2 uM, read-out: Firefly, pGL4, 1% FBS, cmpd/DMSO (mean)
[10] = HEK293, pGL4, 1% FBS, 10 uM, read-out: Firefly, pGL4, 1% FBS, cmpd/DMSO (mean)
[11] = HEK293, pGL4, 1% FBS, 40 uM, read-out: Firefly, pGL4, 1% FBS, cmpd/DMSO (mean)
[12] = HEK293, pGL4, 10% FBS, 0.5 uM, read-out: Firefly, pGL4, 10% FBS, cmpd/DMSO (mean)
[13] = HEK293, pGL4, 10% FBS, 2 uM, read-out: Firefly, pGL4, 10% FBS, cmpd/DMSO (mean)
[14] = HEK293, pGL4, 10% FBS, 10 uM, read-out: Firefly, pGL4, 10% FBS, cmpd/DMSO (mean)
[15] = HEK293, pGL4, 10% FBS, 40 uM, read-out: Firefly, pGL4, 10% FBS, cmpd/DMSO (mean)

CC1CCN([C@H]2CS(=O)(=O)C[C@@H]2S(=O)(=O)c2ccc(Cl)cc2)CC1 [Compound D125]
Firefly F4, cmpd/DMSO (mean) (NR2F6; 0.5 uM): 1.3
Firefly F4, cmpd/DMSO (mean) (NR2F6; 2 uM): 2.3
Firefly F4, cmpd/DMSO (mean) (NR2F6; 10 uM): 5.6
Firefly F4, cmpd/DMSO (mean) (NR2F6; 40 uM): 0.9
Activity, cmpd/DMSO (NR2F6; Table 31): 7.3
fold induction at 0.5 µM (Renilla; [1]): 1
fold induction at 2 µM (Renilla; [1]): 1.3
fold induction at 10 µM (Renilla; [1]): 1.8
fold induction at 40 µM (Renilla; [1]): 1.3
fold induction at 0.5 µM (HEK293 pGL4; [2]): 1.4
fold induction at 2 µM (HEK293 pGL4; [3]): 1.9
fold induction at 10 µM (HEK293 pGL4; [4]): 4.2
fold induction at 40 µM (HEK293 pGL4; [5]): 0.6
Firefly LBD, cmpd/DMSO (mean) (NR2F6 LBD; 0.5 uM): 1.0
Firefly LBD, cmpd/DMSO (mean) (NR2F6 LBD; 2 uM): 1.6
Firefly LBD, cmpd/DMSO (mean) (NR2F6 LBD; 10 uM): 4.6
Firefly LBD, cmpd/DMSO (mean) (NR2F6 LBD; 40 uM): 0.4

CC(=O)Nc1ccc(S(=O)(=O)[C@H]2CS(=O)(=O)C[C@@H]2NC2CC2)cc1 [Compound D133]
Firefly F4, cmpd/DMSO (mean) (NR2F6; 0.5 uM): 1.0
Firefly F4, cmpd/DMSO (mean) (NR2F6; 2 uM): 1.4
Firefly F4, cmpd/DMSO (mean) (NR2F6; 10 uM): 1.8
Firefly F4, cmpd/DMSO (mean) (NR2F6; 40 uM): 1.3
Firefly, F4, 1% FBS, cmpd/DMSO (mean) (NR2F6; 0.5 uM): 0.8
Firefly, F4, 1% FBS, cmpd/DMSO (mean) (NR2F6; 2 uM): 0.8
Firefly, F4, 1% FBS, cmpd/DMSO (mean) (NR2F6; 10 uM): 1.2
Firefly, F4, 1% FBS, cmpd/DMSO (mean) (NR2F6; 40 uM): 0.9
Firefly, F4, 10% FBS, cmpd/DMSO (mean) (NR2F6; 10% FBS, 0.5 uM): 1.5
Firefly, F4, 10% FBS, cmpd/DMSO (mean) (NR2F6; 10% FBS, 2 uM): 0.9
Firefly, F4, 10% FBS, cmpd/DMSO (mean) (NR2F6; 10% FBS, 10 uM): 1.0
Firefly, F4, 10% FBS, cmpd/DMSO (mean) (NR2F6; 10% FBS, 40 uM): 1.0
fold induction at 0.5 µM (Renilla; [1]): 1
fold induction at 2 µM (Renilla; [1]): 1
fold induction at 10 µM (Renilla; [1]): 1.1
fold induction at 40 µM (Renilla; [1]): 1.1
fold induction at 0.5 µM (Renilla; [6]): 1
fold induction at 2 µM (Renilla; [6]): 1
fold induction at 10 µM (Renilla; [6]): 1
fold induction at 40 µM (Renilla; [6]): 1.1
fold induction at 0.5 µM (Renilla; [7]): 0.9
fold induction at 2 µM (Renilla; [7]): 0.9
fold induction at 10 µM (Renilla; [7]): 1
fold induction at 40 µM (Renilla; [7]): 1
fold induction at 0.5 µM (HEK293 pGL4; [2]): 1.1
fold induction at 2 µM (HEK293 pGL4; [3]): 1.1
fold induction at 10 µM (HEK293 pGL4; [4]): 1.9
fold induction at 40 µM (HEK293 pGL4; [5]): 1.1
fold induction at 0.5 µM (HEK293 pGL4; [8]): 1.3
fold induction at 2 µM (HEK293 pGL4; [9]): 1.1
fold induction at 10 µM (HEK293 pGL4; [10]): 1.3
fold induction at 40 µM (HEK293 pGL4; [11]): 1
fold induction at 0.5 µM (HEK293 pGL4; [12]): 0.9
fold induction at 2 µM (HEK293 pGL4; [13]): 0.9
fold induction at 10 µM (HEK293 pGL4; [14]): 1.3
fold induction at 40 µM (HEK293 pGL4; [15]): 1.2
Firefly LBD, cmpd/DMSO (mean) (NR2F6 LBD; 0.5 uM): 1.1
Firefly LBD, cmpd/DMSO (mean) (NR2F6 LBD; 2 uM): 1.1
Firefly LBD, cmpd/DMSO (mean) (NR2F6 LBD; 10 uM): 1.4
Firefly LBD, cmpd/DMSO (mean) (NR2F6 LBD; 40 uM): 1.1

COc1ccc(CCN[C@H]2CS(=O)(=O)C[C@@H]2S(=O)(=O)c2ccc(Cl)cc2)cc1OC [Compound D129]
Firefly F4, cmpd/DMSO (mean) (NR2F6; 0.5 uM): 1.2
Firefly F4, cmpd/DMSO (mean) (NR2F6; 2 uM): 2.0
Firefly F4, cmpd/DMSO (mean) (NR2F6; 10 uM): 4.3
Firefly F4, cmpd/DMSO (mean) (NR2F6; 40 uM): 3.4
F4, Firefly/Renilla for S/B(F4) > 3 (NR2F6; 10% FBS, 40 uM): 2.6
Firefly, F4/pGL4 for S/B(F4) > 3 (NR2F6; 10% FBS, 40 uM): 1.8
Firefly, F4, 1% FBS, cmpd/DMSO (mean) (NR2F6; 0.5 uM): 0.9
Firefly, F4, 1% FBS, cmpd/DMSO (mean) (NR2F6; 2 uM): 1.1
Firefly, F4, 1% FBS, cmpd/DMSO (mean) (NR2F6; 10 uM): 2.9
Firefly, F4, 1% FBS, cmpd/DMSO (mean) (NR2F6; 40 uM): 1.4
Firefly, F4, 10% FBS, cmpd/DMSO (mean) (NR2F6; 10% FBS, 0.5 uM): 1.1
Firefly, F4, 10% FBS, cmpd/DMSO (mean) (NR2F6; 10% FBS, 2 uM): 0.8
Firefly, F4, 10% FBS, cmpd/DMSO (mean) (NR2F6; 10% FBS, 10 uM): 1.9
Firefly, F4, 10% FBS, cmpd/DMSO (mean) (NR2F6; 10% FBS, 40 uM): 4.1
fold induction at 0.5 µM (Renilla; [1]): 1.1
fold induction at 2 µM (Renilla; [1]): 1.2
fold induction at 10 µM (Renilla; [1]): 1.4
fold induction at 40 µM (Renilla; [1]): 1.6
fold induction at 0.5 µM (Renilla; [6]): 1.1
fold induction at 2 µM (Renilla; [6]): 1.1
fold induction at 10 µM (Renilla; [6]): 1.6
fold induction at 40 µM (Renilla; [6]): 1.5
fold induction at 0.5 µM (Renilla; [7]): 1
fold induction at 2 µM (Renilla; [7]): 0.9
fold induction at 10 µM (Renilla; [7]): 1.1
fold induction at 40 µM (Renilla; [7]): 1.5
fold induction at 0.5 µM (HEK293 pGL4; [2]): 1.4
fold induction at 2 µM (HEK293 pGL4; [3]): 1.5
fold induction at 10 µM (HEK293 pGL4; [4]): 2.9
fold induction at 40 µM (HEK293 pGL4; [5]): 1.6
fold induction at 0.5 µM (HEK293 pGL4; [8]): 1.4
fold induction at 2 µM (HEK293 pGL4; [9]): 1.2
fold induction at 10 µM (HEK293 pGL4; [10]): 1.9
fold induction at 40 µM (HEK293 pGL4; [11]): 1.6
fold induction at 0.5 µM (HEK293 pGL4; [12]): 1
fold induction at 2 µM (HEK293 pGL4; [13]): 1
fold induction at 10 µM (HEK293 pGL4; [14]): 2
fold induction at 40 µM (HEK293 pGL4; [15]): 2.2
Firefly LBD, cmpd/DMSO (mean) (NR2F6 LBD; 0.5 uM): 1.1
Firefly LBD, cmpd/DMSO (mean) (NR2F6 LBD; 2 uM): 1.7
Firefly LBD, cmpd/DMSO (mean) (NR2F6 LBD; 10 uM): 2.7
Firefly LBD, cmpd/DMSO (mean) (NR2F6 LBD; 40 uM): 2.4
